The subject of series [1] is HMGal. Put plainly: HMGal activity (in vitro β-galactosidase specific activity) in CHO-HMGal cells. Format: cell-based. Conditions: for reduction in HMGal activity at concentrations below the levels toxic to the cells: five isoprenoid compounds tested. The protocol: (§1) Cell Culture--All cells were grown as monolayers at 37° C. in an atmosphere of 5% CO2. CHO-HMGal cells were grown in minimal essential medium (MEM) supplemented with 0.25 mg/ml active geneticin and either 5% fetal calf serum (FCS) or 5% lipid-poor fetal calf serum (LPS).
Stock Solutions--Stock solutions of farnesyl acetate, ethyl farnesyl ether, and the mixture of 25-hydroxycholesterol with cholesterol were all made in 100% ethanol at 100 times the final concentration. In all experiments in which these compounds were used, there is a final concentration of 1% ethanol in the medium. For control, cells grown with "no additives" or "mevalonate" 100% ethanol was added to the medium to bring the final concentration of ethanol to 1%. The mevalonate stock solution was prepared at a concentration of 2M in 20 mM potassium phosphate buffer (pH 4.5).
(§2) β-galactosidase Specific Activity--In vitro β-galactosidase activity was measured using the substrate, o-nitrophenyl-β-D-galactopyranoside. Specific activities were calculated using protein concentration values.
Farnesyl acetate and ethyl farnesyl ether stimulate a reduction in HMGal activity--In an attempt to identify tile non-sterol metabolite(s) that triggers the down regulation of HMG-CoA reductase, five commercially available isoprenoid compounds were tested for their effects on HMGal activity in CHO-HMGal cells. Each of tile compounds tested closely resembled one of tile naturally occurring isoprenoid pyrophosphates, except that the pyrophosphate group had been replaced by either a hydroxyl or an […] group. The compounds tested included: 3-methyl-2-buten-1-ol, the alcohol of the five carbon isoprenoid-dimethylallyl pyrophosphate (a naturally occurring isomer of isopentenyl pyrophosphate); geraniol and geranyl acetate, the alcohol and the […] of the ten carbon isoprenoid-geranyl pyrophosphate; and farnesol and farnesyl acetate, the alcohol and the […] of the fifteen carbon isoprenoid-farnesyl pyrophosphate.
(§3) To confirm that the reduction in HMGal activity was the result of a regulatory function specifically targeting the membrane domain of HMGal, the effects of farnesyl acetate on β-galactosidase activity were measured in vitro for both CHO-HMGal cells and CHO-Gal cells. The CHO-Gal cells had been stably transfected with a construct identical to the HMGal construct (using the same vector, promoter, and 5' and 3' flanking regions) except that the construct in the CHO-Gal cells codes for a soluble β-galactosidase protein instead of the HMGal fusion protein with the membrane domain of HMG-CoA reductase. In this experiment, the CHO-Gal cells served to control for any artifacts farnesyl acetate might cause in the β-galactosidase assay or any nonspecific effects farnesyl acetate might have on the rates of protein synthesis or degradation.

In series [2] the test system is cholesterol biosynthetic pathway. Nature of the series: TLC distribution of [3H]acetate-derived non-saponifiable lipids (site of metabolic block). Format: cell-based. More on the design: radioactivity in the cell-derived fraction co-migrating with lanosterol / radioactivity in the cell-derived fraction co-migrating with squalene / radioactivity in the cell-derived fraction co-migrating with cholesterol / remaining radioactivity in the cell-derived fraction scattered throughout the rest of the TLC lane: concentration or dose not given beside the values. The protocol:
Lipid Saponification and Extraction Procedure Saponification and extraction of lipids from cell and media samples was performed as previously described in Bradfute, et al. (1992) J.B.C. 267:18308-18314.
(§4) Thin Layer Chromatography--TLC was performed using Analtech 250 μm silica gel G plates with a hexanes/diethyl ether (1:1) solvent system. Lipid standards were visualized by iodine staining. Bands were scraped from the plate and their radioactivity was measured.
(§5) Quantification of Radioactivity--Samples were suspended in 4 ml of scintillation fluid (Cytoscint from ICN). The radioactivity of the samples was measured using a Beckman LS-7500 scintillation counter.
To determine tile site of tile metabolic block caused by farnesyl acetate and ethyl farnesyl ether, the non-saponifiable lipids from cells grown in the presence of the farnesyl compounds were examined for the accumulation of intermediates in the cholesterol biosynthetic pathway. The cells were only labeled for 1 hour and only treated with the farnesyl compounds during the labeling period; so that any intermediates which accumulated would be as a result of the inhibitory effects of the farnesol compounds and not subsequent regulatory effects on HMG-CoA reductase. CHO-HMGal cells were incubated with [^3 H]acetate and either farnesyl acetate, ethyl farnesyl ether, or no additive. The non-saponifiable lipids were isolated from both the cell, and the medium and separated by TLC.

Series [3] concerns total cellular protein. Put plainly: Total cellular protein degradation. Format: cell-based. Conditions: 10 μg/ml. The protocol: (§6) Measurement of HMGal and HMG-CoA Reductase Degradation Rates Cells grown in 60×15 mm dishes were washed once with ice-cold PBS and starved for 1 hour in 1 ml of methionine-free MEM supplemented with 5% LPS, 250 μg/ml of active geneticin, 10 μM compactin, and 0.1 mM mevalonate. These cells were radio-labeled for 2 hours in 300 μl of the methionine-free starvation medium containing 100 μCi of Tran^35 S-label (>1,000 Ci/mmol). Cells were incubated in an MEM-based chase medium containing 2 mM methionine, 5% LPS, 250 μg/ml of active geneticin, 10 μM compactin, and 0.1 mM mevalonate. During the chase period, some plates also had either 20 mM mevalonate, 10 μg/ml farnesyl acetate or 10 μg/ml ethyl farnesyl ether added to them as indicated in the figure legend. Following the chase, cells were washed, lysed and the HMGal and HMG-CoA reductase proteins were immunoprecipitated, subjected to SDS-PAGE and quantified.
(§7) In order to test whether the farnesyl compounds impact degradation, the rates of degradation for HMGal, HMG-CoA reductase, and total cellular protein were measured in the presence and absence of 10 μg/ml farnesyl acetate and ethyl farnesyl ether.

For series [4], the system named is HMGal. Nature of the series: HMGal degradation rate (pulse-chase). Format: cell-based. The settings on record: 10 μg/ml during chase; untreated 6.4 hours. The protocol: as §6, §7
In series [5] the test system is β-galactosidase. Put plainly: β-galactosidase activity in CHO-Gal control cells. Format: cell-based. The protocol:
as §2, §3

The test system of series [6] is CHO-HMGal cells. Nature of the series: Cell growth of CHO-HMGal cells in farnesyl compounds. Format: cell-based. The settings on record: 20 μg/ml. The protocol: as §1
Cell growth in farnesyl acetate and ethyl farnesyl ether CHO-HMGal cells were grown in a range of farnesyl acetate and ethyl farnesyl ether concentrations, in order to determine the optimal concentration of the farnesyl compounds to use in subsequent experiments.

Series [7] concerns cholesterol biosynthesis. Nature of the series: [3H]acetate incorporation into cholesterol in CHO-HMGal cells. Format: cell-based. The protocol:
as §4, §5
Subsequently, the cells were labeled for 1,2, and 4 hours with [^3 H]acetate and harvested. The non-saponifiable lipid fraction from each cell type was extracted and separated by TLC. The radioactivity that co-migrated with cholesterol was measured and normalized for the amount of cellular protein.
Farnesyl acetate and ethyl farnesyl ether were only present during the labeling period so that any reduction in incorporation into cholesterol would be the result of inhibition and not a down regulation in HMG-CoA reductase.

In series [8] the test system is HMG-CoA reductase. Nature of the series: HMG-CoA reductase degradation rate (pulse-chase). Format: cell-based. Conditions: 10 μg/ml during chase; untreated 9.3 hours. The protocol:
as §6, §7

Series [9] relates to HMG-CoA reductase. Put plainly: HMG-CoA reductase synthesis rate ([35S]methionine incorporation). Format: cell-based. Conditions: 20 mM. The protocol: (§8) Measurement of HMGal and HMG-CoA Reductase Synthesis Rates Cells plated into 60×15 mm dishes were grown in 5% LPS MEM with 0.25 mg/ml active geneticin for 24 hours. These cells were washed with PBS and grown for 24 hours in 5% LPS MEM supplemented with 0.25 mg/ml active geneticin, 10 μM compactin and 0.1 mM mevalonate. After 24 hours, the medium was removed, the cells were washed with PBS and the medium was replaced with methionine-free MEM supplemented with 5% LPS, 250 μg/ml of active geneticin, 10 μM compactin, and 0.1 mM mevalonate. In addition, 20 mM mevalonate or 10 μg/ml farnesyl acetate was included in those plates previously treated with these compounds. […] Cells were washed, lysed and the HMGal and HMG-CoA reductase proteins were immunoprecipitated, subjected to SDS-PAGE and quantified. […]
(§9) Farnesyl compounds reduce translation and stimulate degradation of HMG-CoA reductase and HMGal A reduction in HMGal specific activity triggered by the farnesyl compounds could have been the result of a decrease in HMGal synthesis, an increase in HMGal degradation, or a combination of changes in both the synthesis and degradation rates. In order to test whether the farnesyl compounds impact synthesis, the rates of HMGal, HMG-CoA reductase, and total cellular protein synthesis were measured by [^35 S]methionine incorporation in the presence and absence of 10 μg/ml farnesyl acetate.

Series [10] deals with HMGal. Nature of the series: HMGal synthesis rate ([35S]methionine incorporation). Format: cell-based. Conditions: 20 mM. The protocol:
as §8, §9

For series [11], the system named is squalene synthase. Put plainly: Squalene synthase assay (cell lysate). Format: biochemical. The settings on record: 1 nM to 50 μM. The protocol: Squalene Synthase Assay--The cell lysate was prepared immediately prior to running the assay. Cells were washed three times with PBS, once with a 0.1M potassium phosphate buffer (pH 7.4) containing 5 mM MgCl2 and 5 mM CHAPS, and once with a 0.01M potassium phosphate buffer (pH 7.4) containing 0.5 mM MgCl2 and 0.5 mM CHAPS. Cells were scraped with a rubber policeman in approximately 0.5 ml of the final wash buffer and dounce homogenized with 20 strokes, while on ice. An aliquot of cell lysate was examined with a light microscope to ensure that essentially all cells in the sample were lysed. An additional aliquot of cell lysate was saved for protein determination. […] The squalene was isolated by TLC and the radioactivity of the squalene bands was measured as previously described. […]
Since both farnesyl compounds have a structural similarity to farnesyl pyrophosphate, the substrate for squalene synthase, and some of the farnesyl compounds that have been tested function as a competitive inhibitor of squalene synthase, the effects of farnesyl acetate on in vitro squalene synthase activity was measured. As a positive control, squalene synthase activity was also measured in tile presence of zaragozic acid A, a potent competitive inhibitor of the enzyme. […]

The mark [12] stands for this setting: 1 hour labeling with [3H]acetate, compound only during labeling.

As to `CC(C)=CCO` [3-methyl-2-buten-1-ol, reference compound], the “reduction in HMGal activity at concentrations below the levels toxic to the cells” value (from here on “reduction in HMGal activity”) in series [1] was “only farnesyl acetate stimulated a reduction in HMGal activity”.

Regarding `CCOCC=C(C)CCC=C(C)CCC=C(C)C` [ethyl farnesyl ether], in series [2] (setting [12]), the “radioactivity in the cell-derived fraction co-migrating with cholesterol” value was 1%, the “radioactivity in the cell-derived fraction co-migrating with lanosterol” value stood at 48%, the “radioactivity in the cell-derived fraction co-migrating with squalene” value was 45% and the “remaining radioactivity in the cell-derived fraction scattered throughout the rest of the TLC lane” value is given as 6%. For the same compound, the “total non-saponifiable radioactivity found in the medium” value in [2] (untreated 6%) is listed as 14%. Moreover, the “total non-saponifiable radioactivity found in the cells” value in [2] (untreated 94%) is recorded as 86%. The “increase in media-derived material co-migrating with farnesol” value in series [2] (versus untreated sample) turned out to be 2 fold. The “effect on the degradation of total cellular protein” value in series [3] is given as “Neither farnesyl compound had a significant effect”. Moreover, in [4], the “half-life of HMGal” value is 3.0 h and the “reduction of the half-life of HMGal” value was found to be 50%. For the same compound, the “change of β-galactosidase activity of CHO-Gal cells” value in series [5] (10 μg/ml) is given as “insignificant”. Further, in [5] (20 μg/ml), the “change of β-galactosidase activity of CHO-Gal cells” value was “essentially unchanged”. Besides, the “reduction in cell growth” value in series [6] is on record as “approximately 60%”. In series [7] (24 hours pretreatment, then labeled 1, 2 and 4 hours, CHO-HMGal cells), the “reduction in [3H]acetate incorporation into cholesterol” value was 95%. Moreover, the “reduction in [3H]acetate incorporation into cholesterol” value in series [7] (compound present only during the labeling period, no pretreatment) was 98%. For the same compound, the “reduction of HMGal activity” value in [1] (10 μg/ml, 24 hour treatment) is 40%. In series [1] (20 μg/ml), the “reduction of HMGal activity” value was 50%. In series [8], the “half-life of HMG-CoA reductase” value amounted to 2.9 h and the “reduction of the half-life of HMG-CoA reductase” value is reported as 70%.

With `CC(C)=CCCC(C)=CCCC(C)=CCO` [farnesol, reference compound], the “reduction in HMGal activity” value in series [1] is “only farnesyl acetate stimulated a reduction in HMGal activity”.

In the case of `CC(C)=CCC/C(C)=C/CO` [geraniol, reference compound], in series [1], the “reduction in HMGal activity” value is recorded as “only farnesyl acetate stimulated a reduction in HMGal activity”.

For the compound `CC(=O)OC/C=C(\C)CCC=C(C)C` [geranyl acetate, reference compound], the “reduction in HMGal activity” value in [1] was “only farnesyl acetate stimulated a reduction in HMGal activity”.

On to `CC(O)(CCO)CC(=O)O` (centres unmarked) [mevalonate, reference compound], for which the “reduction in HMG-CoA reductase synthesis” value in [9] is 70%. Also, the “reduction in the rate of HMGal synthesis” value in series [10] is reported as 70%.

Regarding `C=C(CC[C@]12O[C@H](C(=O)O)[C@@](O)(C(=O)O)[C@](C(=O)O)(O1)[C@H](OC(=O)/C=C/[C@@H](C)C[C@@H](C)CC)[C@H]2O)[C@@H](OC(C)=O)[C@H](C)Cc1ccccc1` [zaragozic acid A, reference compound], the “inhibition of in vitro squalene synthase activity” value in [11] is “more than 90%”.

The record behind these values is patent US5475029A, “Farnesyl compounds as cholesterol lowering agents” (The Board of Trustees of the Leland Stanford Junior …, priority 1993, dated 1995).
